Values quoted from earlier work in US8163058B2 (Whitehurst Associates, Inc., priority 2009, dated 2012).

Details: prior art description

CCCCNP(N)(N)=S [NBPT, N-(n-butyl) thiophosphoric triamide]
Hydrolytic stability: undergoes hydrolysis | Thermal stability: thermally unstable
